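96-well plates; 48 h exposure; 5 concentrations. Endpoints by linear interpolation between flanking doses. Not reached: highest tested concentration assigned. Abbreviation: GI50, concentration required for 50% inhibition of growth. Definition used: TGI = concentration required for complete inhibition of growth.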

Results on seven compounds are retold here after PubChem BioAssay (NCI).

What all share (test): NCI tumour cell line growth inhibition, 48 h
In test [1] the test system is MALME-3M melanoma.
Test [2] has as its system TK-10 renal.
Test [3] relates to SF-539 CNS.
Test [4] concerns BT-549 breast.
The test system of test [5] is UO-31 renal.
Test [6] relates to OVCAR-8 ovarian.
The test system of test [7] is EKVX NSCLC.
For test [8], the system named is NCI-H226 lung.
The test system of test [9] is U251 CNS.
Test [10] deals with SW-620 colon.

In the case of `O=C(NO)[C@@H](Cc1ccccc1)NS(=O)(=O)c1ccc(-c2ccccc2)cc1`, the GI50 is greater than 25 µM in test [1]; 19.1 µM in test [2]; 9.56 µM in test [3]; greater than 25 µM in test [4]; 13.2 µM in test [5]; 22.5 µM in [6]. Besides, the GI50 was 15.7 µM in test [7], greater than 25 µM in [8], 21.3 µM in test [9] and 21.2 µM in [10]. The TGI in test [1], in [2], in test [3], in test [4], in test [5] and in test [6] was greater than 25 µM each time. The TGI in [7], in test [8], in [9] and in test [10] was greater than 25 µM throughout.

On to `O=C(Nc1cccc(-c2ccc(Cl)c(C(F)(F)F)c2)c1)C1CCN(Cc2cccc3cccnc23)CC1`, for which the GI50 in [1] was 1.65 µM; in test [2], 1.63 µM; in test [3] it was 1.76 µM; in [4], 1.65 µM; in [5], 1.25 µM; in test [6] it was 1.93 µM. Further, the GI50 is 1.73 µM in [7], 1.88 µM in test [8], 1.71 µM in [9] and 1.77 µM in test [10]. Further, the TGI stood at 3.08 µM in test [1]; 3.16 µM in [2]; 3.16 µM in test [3]; 3.18 µM in test [4]; 2.52 µM in [5]; 4.19 µM in [6]. Also, the TGI in [7] amounted to 3.15 µM; in test [8] it was 3.89 µM; in test [9], 3.29 µM; in test [10], 3.54 µM.

Regarding `[N-]=[N+]=NCCCn1c2c(c3ccc([N+](=O)[O-])cc3c1=O)C(=O)c1cc(F)ccc1-2`, the GI50 in test [1] is 3.46 µM; in test [2], 16.7 µM; in test [3], 2.38 µM; in test [4], 5.37 µM; in test [5], 0.807 µM; in test [6], 2.67 µM. For the same compound, the GI50 in [7] was 61.2 µM; in [8], 2.26 µM; in [9] it was 0.539 µM; in test [10] it was 1.76 µM. Further, the TGI was 19.8 µM in test [1]; greater than 100 µM in test [2]; greater than 100 µM in test [3]; greater than 100 µM in test [4]; 12.6 µM in test [5]; greater than 100 µM in test [6]. Moreover, the TGI in test [7] was greater than 100 µM; in test [8], greater than 46.8 µM; in [9] it was 8.89 µM; in test [10] it was greater than 100 µM.

`O=C(N/N=C/c1ccc(O)cc1O)c1cccc(Nc2ccnc(C(F)(F)F)c2)c1`: the GI50 in test [1] is 1.32 µM; in test [2] it was 2.98 µM; in [3], 0.967 µM; in test [4], 1.45 µM; in [5], 1.44 µM; in test [6] it was 0.716 µM. The GI50 in test [7] was 1.32 µM; in test [8], 1.21 µM; in [9] it was 0.617 µM; in test [10], 4.07 µM. In addition, the TGI in test [1] is 11.5 µM; in [2], 37.3 µM; in test [3], 7.74 µM; in [4], 50.8 µM; in test [5], 33.6 µM; in test [6] it was 32.9 µM. Besides, the TGI came out at 37.3 µM in test [7], 9.44 µM in test [8], 49 µM in test [9] and 21.4 µM in test [10].

Turning to `Oc1ccc(C2c3ccccc3Oc3ccccc32)c2cccnc12`, the GI50 is 2.83 µM in test [1]; 1.09 µM in test [2]; 2.53 µM in test [3]; 3.15 µM in test [4]; 1.21 µM in test [5]; 1.6 µM in [6]. Besides, the GI50 in [7] is 2 µM; in [8], 1.23 µM; in [9] it was 0.845 µM; in test [10] it was 1.17 µM. Besides, the TGI in [1] was 27.4 µM; in test [2], greater than 100 µM; in test [3] it was 25.5 µM; in test [4], greater than 100 µM; in [5] it was 19.7 µM; in test [6] it was greater than 100 µM. In addition, the TGI was greater than 100 µM in [7], 7.92 µM in [8], greater than 100 µM in [9] and greater than 100 µM in test [10].

On to `C/C(=C\c1cc(C(F)(F)F)n(-c2ccc(N)cc2)n1)[C@@H]1C[C@@H]2O[C@]2(C)CCC[C@H](C)[C@H](O)[C@@H](C)C(=O)C(C)(C)[C@@H](O)CC(=O)O1`, for which the GI50 in test [1] is 0.089 µM; in test [2] it was 0.0578 µM; in test [3] it was 0.025 µM; in test [4] it was 0.065 µM; in test [5] it was 0.0791 µM; in test [6], 0.0557 µM. For the same compound, the GI50 in test [7] was 0.23 µM; in test [8], 0.956 µM; in [9] it was 0.0477 µM; in test [10], 0.00554 µM. The TGI in test [1] was greater than 11.1 µM; in [2], 7.95 µM; in test [3], 0.336 µM; in test [4], 3.44 µM; in test [5], greater than 11.1 µM; in test [6], greater than 11.1 µM. For the same compound, the TGI in [7], in test [8], in test [9] and in test [10] was greater than 11.1 µM in each case.

`CCc1ccc(C(=Nc2ccc(N(C)C(=O)CN3CCN(C)CC3)cc2)c2c(O)[nH]c3ccc(C(=O)OC)cc23)cc1`: the GI50 is 0.516 µM in [1]; 0.233 µM in test [2]; 0.426 µM in test [3]; 1.32 µM in test [4]; 0.287 µM in [5]; 0.772 µM in test [6]. Further, the GI50 was 0.788 µM in test [7], 0.977 µM in test [8], 0.59 µM in [9] and 0.259 µM in test [10]. Further, the TGI stood at 1.9 µM in test [1]; 2.11 µM in test [2]; 1.56 µM in test [3]; 2.65 µM in [4]; 1.36 µM in test [5]; 3.21 µM in test [6]. Also, the TGI in [7] worked out at 2.36 µM; in test [8], 2.71 µM; in test [9], 2.02 µM; in test [10], 1.29 µM.
